# Assay results as given in ChEMBL document CHEMBL3885861, “Open TG-GATES”.
# Species on record: Rattus norvegicus
# Experiment: Open TG-GATES - Regimen: Single
# Format: toxicity, organism-based, Sprague-Dawley
# Design: regimen Single, gender Male, age 6 weeks
# Settings: in vivo, po, route gavage; for APTT / Bas / Eos / Fbg / Hb / Ht / Lym / MCH / MCHC / MCV / Mono / PT / Plat / RBC / Ret / WBC / Neu: tissue Blood; for KIDNEY_L / KIDNEY_R / KIDNEY_TOTAL: tissue Kidney; for LIVER: tissue Liver
# [1] = 10 mg/kg, 24 h, tissue Plasma, dose level Low
# [2] = 30 mg/kg, 3 h, dose level Middle
# [3] = 30 mg/kg, 3 h, tissue Plasma, dose level Middle
# [4] = 30 mg/kg, 6 h, dose level Middle
# [5] = 30 mg/kg, 6 h, tissue Plasma, dose level Middle
# [6] = 30 mg/kg, 9 h, dose level Middle
# [7] = 30 mg/kg, 9 h, tissue Plasma, dose level Middle
# [8] = 30 mg/kg, 24 h, dose level Middle
# [9] = 30 mg/kg, 24 h, tissue Plasma, dose level Middle
smiles,measurement,setting,value
CC(=O)N1CCN(c2ccc(OCC3COC(Cn4ccnc4)(c4ccc(Cl)cc4Cl)O3)cc2)CC1 (stereo not given) [KETOCONAZOLE],TG,[1],94.4 mg/dL
same,TP,[1],5.5 g/dL
same,gamma-GTP,[1],1.2 IU/L
same,TERMINAL_BW,[2],196.9 g
same,APTT,[2],21.2 s
same,Bas,[2],0%
same,Eos,[2],0.4%
same,Fbg,[2],275.6 mg/dL
same,Hb,[2],12.7 g/dL
same,Ht,[2],38.1%
same,Lym,[2],77.2%
same,MCH,[2],21.5 pg
same,MCHC,[2],33.2%
same,MCV,[2],64.6 fL
same,Mono,[2],1.6%
same,PT,[2],17.1 s
same,Plat,[2],121.6 x10_4/uL
same,RBC,[2],590.6 x10_4/ul
same,Ret,[2],8.6%
same,WBC,[2],75.8 x10_2/uL
same,KIDNEY_L,[2],0.9 g
same,KIDNEY_R,[2],0.9 g
same,KIDNEY_TOTAL,[2],1.8 g
same,LIVER,[2],9 g
same,ALP,[3],1671.8 IU/L
same,AST,[3],77 IU/L
same,BUN,[3],11.6 mg/dL
same,CRE,[3],0.2 mg/dL
same,Ca,[3],10.8 mg/dL
same,Cl,[3],105.2 meq/L
same,DBIL,[3],0 mg/dL
same,GLC,[3],188.2 mg/dL
same,IP,[3],8.6 mg/dL
same,LDH,[3],205.8 IU/L
same,Na,[3],141.2 meq/L
same,PL,[3],140.2 mg/dL
same,RALB,[3],2.9 g/dL
same,TBIL,[3],0.016 mg/dL
same,TC,[3],75.8 mg/dL
same,TG,[3],54 mg/dL
same,TP,[3],5.4 g/dL
same,gamma-GTP,[3],1.2 IU/L
same,TERMINAL_BW,[4],199.3 g
same,APTT,[4],21.8 s
same,Bas,[4],0%
same,Eos,[4],1%
same,Fbg,[4],304.4 mg/dL
same,Hb,[4],13.2 g/dL
same,Ht,[4],39.5%
same,Lym,[4],79.8%
same,MCH,[4],21.1 pg
same,MCHC,[4],33.5%
same,MCV,[4],63.1 fL
same,Mono,[4],2.2%
same,Neu,[4],15.8%
same,PT,[4],16.7 s
same,Plat,[4],126 x10_4/uL
same,RBC,[4],626.6 x10_4/ul
same,Ret,[4],7.8%
same,WBC,[4],67.8 x10_2/uL
same,KIDNEY_L,[4],0.9 g
same,KIDNEY_R,[4],0.9 g
same,KIDNEY_TOTAL,[4],1.9 g
same,LIVER,[4],8.4 g
same,ALP,[5],1604 IU/L
same,AST,[5],72.6 IU/L
same,BUN,[5],10.2 mg/dL
same,CRE,[5],0.2 mg/dL
same,Ca,[5],10.9 mg/dL
same,Cl,[5],105.6 meq/L
same,DBIL,[5],0 mg/dL
same,GLC,[5],179.4 mg/dL
same,IP,[5],9.4 mg/dL
same,LDH,[5],237.8 IU/L
same,Na,[5],142 meq/L
same,PL,[5],135 mg/dL
same,RALB,[5],3.1 g/dL
same,TBIL,[5],0.034 mg/dL
same,TC,[5],75 mg/dL
same,TG,[5],54.6 mg/dL
same,TP,[5],5.5 g/dL
same,gamma-GTP,[5],1.2 IU/L
same,TERMINAL_BW,[6],200.7 g
same,APTT,[6],21.4 s
same,Bas,[6],0%
same,Eos,[6],1%
same,Fbg,[6],287 mg/dL
same,Hb,[6],13.3 g/dL
same,Ht,[6],39.8%
same,Lym,[6],77.4%
same,MCH,[6],21.4 pg
same,MCHC,[6],33.4%
same,MCV,[6],63.9 fL
same,Mono,[6],1.4%
same,Neu,[6],19.8%
same,PT,[6],16.8 s
same,Plat,[6],127.9 x10_4/uL
same,RBC,[6],622.8 x10_4/ul
same,Ret,[6],8.5%
same,WBC,[6],52.8 x10_2/uL
same,KIDNEY_L,[6],1 g
same,KIDNEY_R,[6],1 g
same,KIDNEY_TOTAL,[6],1.9 g
same,LIVER,[6],8.3 g
same,ALP,[7],1563 IU/L
same,AST,[7],70.6 IU/L
same,BUN,[7],10.6 mg/dL
same,CRE,[7],0.2 mg/dL
same,Ca,[7],10.6 mg/dL
same,Cl,[7],105 meq/L
same,DBIL,[7],0.002 mg/dL
same,GLC,[7],176.2 mg/dL
same,IP,[7],10 mg/dL
same,LDH,[7],200.6 IU/L
same,Na,[7],141.2 meq/L
same,PL,[7],123.8 mg/dL
same,RALB,[7],3.1 g/dL
same,TBIL,[7],0.02 mg/dL
same,TC,[7],65.6 mg/dL
same,TG,[7],47 mg/dL
same,TP,[7],5.4 g/dL
same,gamma-GTP,[7],1.2 IU/L
same,TERMINAL_BW,[8],217.1 g
same,APTT,[8],20.6 s
same,Bas,[8],0%
same,Eos,[8],1%
same,Fbg,[8],320.8 mg/dL
same,Hb,[8],12.7 g/dL
same,Ht,[8],38.5%
same,Lym,[8],75.2%
same,MCH,[8],21.1 pg
same,MCHC,[8],33.1%
same,MCV,[8],64 fL
same,Mono,[8],1.6%
same,Neu,[8],20.6%
same,PT,[8],16.3 s
same,Plat,[8],121.7 x10_4/uL
same,RBC,[8],602 x10_4/ul
same,Ret,[8],7.3%
same,WBC,[8],66 x10_2/uL
same,KIDNEY_L,[8],1 g
same,KIDNEY_R,[8],1 g
same,KIDNEY_TOTAL,[8],2 g
same,LIVER,[8],10.7 g
same,ALP,[9],1798.8 IU/L
same,ALT,[9],49.4 IU/L
same,AST,[9],75 IU/L
same,BUN,[9],15.4 mg/dL
same,CRE,[9],0.2 mg/dL
same,Ca,[9],10.8 mg/dL
same,Cl,[9],106.2 meq/L
same,DBIL,[9],0 mg/dL
same,GLC,[9],179 mg/dL
same,IP,[9],7.5 mg/dL
same,LDH,[9],220 IU/L
same,Na,[9],142.4 meq/L
same,PL,[9],148.8 mg/dL
same,RALB,[9],3 g/dL
same,TBIL,[9],0.004 mg/dL
same,TC,[9],77.2 mg/dL
